What all share (assay): cell-based
Assay [1] deals with hNav1.7 (Homo sapiens, UniProt Q15858). Type of assay: cell-based.
The target of assay [2] is hNav1.5 (Homo sapiens, UniProt Q14524). Conditions: IonWorks Quattro, read-out: IWQ Use Nav1.5.
The target of assay [3] is hNav1.3 (Homo sapiens, UniProt Q9NY46). Conditions: IonWorks Quattro, read-out: IWQ Use Nav1.3. For orientation: The patch-clamp technique gives a direct electrical read-out from membranes.
Where [4] appears, read: clamped to −110 mV, depolarized to −10 mV, 5 min after compound, n=2.
The mark [5] stands for this setting: IonWorks Quattro, Use, read-out: IWQ Use Nav1.7.

Like-named read-outs stand apart in the source and are kept apart here. Positions of bridges follow the written chain, without caps; N, C: chain ends. Non-standard residues stand in square brackets, D forms with d. Residues, ends and D or L forms follow the SMILES beside them. *: point of attachment. Arg(Me2s) = CN=C(NC)NCCC[C@H](N)C(=O)O; Pent4ynoyl = C#CCCC(=O)*; Abu = CC[C@H](N)C(=O)O

Sequence of hNav1.5 (Q14524 whole entry, looked up): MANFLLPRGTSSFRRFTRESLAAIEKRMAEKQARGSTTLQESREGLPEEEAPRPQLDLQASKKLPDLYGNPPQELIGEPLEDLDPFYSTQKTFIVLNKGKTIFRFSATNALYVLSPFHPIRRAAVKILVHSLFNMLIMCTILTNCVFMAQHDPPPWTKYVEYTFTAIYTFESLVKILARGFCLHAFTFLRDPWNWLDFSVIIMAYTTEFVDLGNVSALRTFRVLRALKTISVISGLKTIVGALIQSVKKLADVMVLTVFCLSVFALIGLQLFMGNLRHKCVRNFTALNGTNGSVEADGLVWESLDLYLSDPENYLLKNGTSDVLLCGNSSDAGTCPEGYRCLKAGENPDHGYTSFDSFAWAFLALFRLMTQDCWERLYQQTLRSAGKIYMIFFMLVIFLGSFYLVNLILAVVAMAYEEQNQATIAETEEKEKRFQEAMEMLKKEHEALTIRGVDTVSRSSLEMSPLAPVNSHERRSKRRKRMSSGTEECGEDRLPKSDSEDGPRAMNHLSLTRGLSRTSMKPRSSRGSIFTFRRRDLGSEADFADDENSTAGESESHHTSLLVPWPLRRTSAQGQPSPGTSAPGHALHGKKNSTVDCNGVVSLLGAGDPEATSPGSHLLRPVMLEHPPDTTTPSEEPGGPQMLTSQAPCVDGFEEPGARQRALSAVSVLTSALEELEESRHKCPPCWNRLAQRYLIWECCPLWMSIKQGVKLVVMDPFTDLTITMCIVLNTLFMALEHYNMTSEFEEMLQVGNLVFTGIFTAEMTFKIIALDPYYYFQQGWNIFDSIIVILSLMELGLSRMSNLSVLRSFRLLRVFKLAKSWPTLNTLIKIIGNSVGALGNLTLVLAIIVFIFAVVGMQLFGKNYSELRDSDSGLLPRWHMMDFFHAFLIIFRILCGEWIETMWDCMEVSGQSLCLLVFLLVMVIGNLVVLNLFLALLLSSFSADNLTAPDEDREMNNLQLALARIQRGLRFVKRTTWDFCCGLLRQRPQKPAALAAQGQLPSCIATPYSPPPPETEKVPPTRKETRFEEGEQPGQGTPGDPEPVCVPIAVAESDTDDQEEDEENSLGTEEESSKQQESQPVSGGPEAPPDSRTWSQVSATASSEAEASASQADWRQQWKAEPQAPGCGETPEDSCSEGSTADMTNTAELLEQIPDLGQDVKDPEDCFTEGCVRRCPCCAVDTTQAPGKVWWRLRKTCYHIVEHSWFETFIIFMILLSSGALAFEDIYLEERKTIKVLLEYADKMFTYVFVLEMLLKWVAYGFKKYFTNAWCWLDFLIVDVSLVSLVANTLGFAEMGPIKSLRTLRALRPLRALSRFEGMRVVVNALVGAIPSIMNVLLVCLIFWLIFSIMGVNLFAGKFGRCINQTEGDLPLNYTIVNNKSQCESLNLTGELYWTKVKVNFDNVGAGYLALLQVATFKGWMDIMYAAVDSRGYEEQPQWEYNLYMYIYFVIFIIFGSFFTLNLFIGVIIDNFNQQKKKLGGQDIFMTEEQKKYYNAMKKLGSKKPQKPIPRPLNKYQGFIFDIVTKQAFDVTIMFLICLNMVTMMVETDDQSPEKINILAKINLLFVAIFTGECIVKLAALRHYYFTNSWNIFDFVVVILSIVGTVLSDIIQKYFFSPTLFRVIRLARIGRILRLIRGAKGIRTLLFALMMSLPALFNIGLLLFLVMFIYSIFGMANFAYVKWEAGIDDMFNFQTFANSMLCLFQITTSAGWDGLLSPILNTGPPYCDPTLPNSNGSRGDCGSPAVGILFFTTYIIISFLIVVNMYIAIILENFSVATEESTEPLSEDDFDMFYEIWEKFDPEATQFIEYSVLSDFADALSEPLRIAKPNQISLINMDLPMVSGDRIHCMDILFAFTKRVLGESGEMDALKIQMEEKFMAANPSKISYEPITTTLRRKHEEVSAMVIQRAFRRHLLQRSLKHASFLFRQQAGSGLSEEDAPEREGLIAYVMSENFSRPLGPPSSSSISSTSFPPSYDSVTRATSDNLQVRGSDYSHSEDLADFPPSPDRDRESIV
Sequence of hNav1.7 (Q15858 whole entry, looked up): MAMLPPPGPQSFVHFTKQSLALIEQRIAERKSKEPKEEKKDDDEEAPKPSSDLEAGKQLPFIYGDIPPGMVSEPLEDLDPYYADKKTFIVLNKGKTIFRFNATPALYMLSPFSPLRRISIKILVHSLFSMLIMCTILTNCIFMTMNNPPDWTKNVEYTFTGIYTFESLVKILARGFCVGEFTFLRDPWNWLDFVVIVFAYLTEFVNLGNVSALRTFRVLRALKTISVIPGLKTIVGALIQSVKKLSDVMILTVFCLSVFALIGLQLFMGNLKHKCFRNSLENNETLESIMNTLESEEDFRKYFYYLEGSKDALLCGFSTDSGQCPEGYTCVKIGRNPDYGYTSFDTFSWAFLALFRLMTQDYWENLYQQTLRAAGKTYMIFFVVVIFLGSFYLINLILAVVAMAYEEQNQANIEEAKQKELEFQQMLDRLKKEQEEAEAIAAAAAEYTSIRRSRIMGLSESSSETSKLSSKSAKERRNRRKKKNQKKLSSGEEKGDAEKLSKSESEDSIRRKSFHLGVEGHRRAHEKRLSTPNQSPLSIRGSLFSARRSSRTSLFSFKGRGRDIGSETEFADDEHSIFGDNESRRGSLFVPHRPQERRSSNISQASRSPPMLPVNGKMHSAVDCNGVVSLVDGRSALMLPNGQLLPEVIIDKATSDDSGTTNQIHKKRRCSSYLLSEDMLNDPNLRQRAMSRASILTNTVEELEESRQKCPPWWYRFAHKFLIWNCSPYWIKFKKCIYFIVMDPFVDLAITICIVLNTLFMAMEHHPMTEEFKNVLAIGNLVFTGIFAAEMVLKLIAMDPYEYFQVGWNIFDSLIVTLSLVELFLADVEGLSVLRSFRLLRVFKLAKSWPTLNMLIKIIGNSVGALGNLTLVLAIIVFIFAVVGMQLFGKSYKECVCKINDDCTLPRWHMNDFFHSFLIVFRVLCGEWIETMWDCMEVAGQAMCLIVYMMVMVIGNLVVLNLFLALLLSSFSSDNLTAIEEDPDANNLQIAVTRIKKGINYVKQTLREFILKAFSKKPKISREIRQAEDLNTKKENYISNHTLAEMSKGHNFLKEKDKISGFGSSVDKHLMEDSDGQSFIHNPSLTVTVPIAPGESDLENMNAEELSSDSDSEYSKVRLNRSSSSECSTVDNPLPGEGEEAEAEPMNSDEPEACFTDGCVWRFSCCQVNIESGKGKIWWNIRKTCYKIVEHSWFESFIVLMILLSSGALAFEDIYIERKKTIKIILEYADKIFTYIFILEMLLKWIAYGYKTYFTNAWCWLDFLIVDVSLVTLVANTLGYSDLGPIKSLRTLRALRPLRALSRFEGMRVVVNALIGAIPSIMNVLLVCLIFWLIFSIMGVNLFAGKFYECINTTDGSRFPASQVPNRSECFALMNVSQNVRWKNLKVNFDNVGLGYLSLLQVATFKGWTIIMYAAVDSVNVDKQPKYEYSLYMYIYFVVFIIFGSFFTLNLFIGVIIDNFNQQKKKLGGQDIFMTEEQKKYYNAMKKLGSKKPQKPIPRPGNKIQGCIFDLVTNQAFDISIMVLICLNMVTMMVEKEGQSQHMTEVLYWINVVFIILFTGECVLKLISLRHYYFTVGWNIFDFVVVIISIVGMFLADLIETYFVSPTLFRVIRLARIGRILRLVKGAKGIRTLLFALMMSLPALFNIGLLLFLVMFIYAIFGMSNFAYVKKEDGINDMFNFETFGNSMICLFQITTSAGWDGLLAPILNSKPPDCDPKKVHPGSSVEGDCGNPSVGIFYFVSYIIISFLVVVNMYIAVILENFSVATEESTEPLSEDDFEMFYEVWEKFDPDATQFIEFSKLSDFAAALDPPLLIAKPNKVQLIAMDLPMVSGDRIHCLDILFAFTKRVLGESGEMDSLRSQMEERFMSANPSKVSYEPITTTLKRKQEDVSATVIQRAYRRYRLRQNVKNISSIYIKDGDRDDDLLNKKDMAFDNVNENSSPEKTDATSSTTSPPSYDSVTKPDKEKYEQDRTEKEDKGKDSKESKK

With `CC[C@H](C)[C@@H]1NC(=O)[C@@H]2CSSC[C@@H]3NC(=O)[C@H](C(C)C)NC(=O)[C@H](CC(C)C)NC(=O)[C@H](CC(N)=O)NC(=O)[C@@H]4CCCN4C(=O)[C@H](CCCNC(=N)N)NC(=O)[C@H](CSSC[C@H](NC(=O)[C@@H](N)CC(=O)O)C(=O)N[C@@H](CC(C)C)C(=O)NCC(=O)N[C@@H](Cc4cn(C)c5ccccc45)C(=O)N[C@@H](CCSC)C(=O)N[C@@H](CCCNC(=N)N)C(=O)N[C@@H](CCCCN)C(=O)N2)NC(=O)[C@H](CSSC[C@@H](C(=O)N[C@@H](CCCCN)C(=O)N[C@@H](Cc2ccc(O)cc2)C(=O)N[C@H](C(=O)N[C@@H](Cc2ccccc2)C(N)=O)C(C)C)NC(=O)[C@H](Cc2c[nH]c4ccccc24)NC(=O)[C@H](CCCCN)NC(=O)[C@H](Cc2c[nH]cn2)NC(=O)[C@H]([C@@H](C)O)NC(=O)[C@H](CCCNC(=N)N)NC(=O)[C@H](CO)NC3=O)NC(=O)[C@H](CCCCN)NC(=O)[C@H](CC(=O)O)NC(=O)[C@H](CC(N)=O)NC(=O)[C@H](CC(=O)O)NC(=O)[C@@H]2CCCN2C1=O` [SEQ ID NO: 264], the IC50 in assay [1] (IonWorks Quattro, clamped to −110 mV, depolarized to −10 mV, 5 min after compound, n=2, read-out: IWQ Use Nav1.7) worked out at 90 nM; in assay [2] (setting [4]) it was 8170 nM; in assay [3] (setting [4]), 90 nM.
Regarding `CC[C@H](C)[C@@H]1NC(=O)[C@@H]2CSSC[C@@H]3NC(=O)[C@H](C(C)C)NC(=O)[C@H](CC(C)C)NC(=O)[C@H](CC(N)=O)NC(=O)[C@@H]4CCCN4C(=O)[C@H](CCCNC(=N)N)NC(=O)[C@H](CSSC[C@H](NC(=O)[C@@H](N)CC(=O)O)C(=O)N[C@@H](CC(C)C)C(=O)NCC(=O)N[C@@H](Cc4ccccc4)C(=O)N[C@@H](CCSC)C(=O)N[C@@H](CCCNC(=N)N)C(=O)N[C@@H](CCCCN)C(=O)N2)NC(=O)[C@H](CSSC[C@@H](C(=O)N[C@@H](CCCCN)C(=O)N[C@@H](Cc2ccc(O)cc2)C(=O)N[C@H](C(=O)N[C@@H](Cc2ccccc2)C(N)=O)C(C)C)NC(=O)[C@H](Cc2c[nH]c4ccccc24)NC(=O)[C@H](CCCCN)NC(=O)[C@H](CCCNC(=N)N)NC(=O)[C@H]([C@@H](C)O)NC(=O)[C@H](CCCNC(=N)N)NC(=O)[C@H](CO)NC3=O)NC(=O)[C@H](CCCCN)NC(=O)[C@H](CC(=O)O)NC(=O)[C@H](CC(N)=O)NC(=O)[C@H](CC(=O)O)NC(=O)[C@@H]2CCCN2C1=O` [compound 71] (H-DCLGFMRKCIPDNDKCCRPNLVCSRTRKWCKYVF-NH2; disulfide 2-17, 9-23, 16-30), the IC50 in assay [1] came out at 510 nM; in assay [2] (Table 23, use, […]), 5220 nM; in assay [3] (Table 23, use, […]), 510 nM.
In the case of `CC[C@H](C)[C@@H]1NC(=O)[C@@H]2CSSC[C@@H]3NC(=O)[C@H](C(C)C)NC(=O)[C@H](CC(C)C)NC(=O)[C@H](CC(N)=O)NC(=O)[C@@H]4CCCN4C(=O)[C@H](CCCNC(=N)N)NC(=O)[C@H](CSSC[C@H](NC(=O)[C@@H](N)CC(=O)O)C(=O)N[C@@H](CC(C)C)C(=O)NCC(=O)N[C@@H](Cc4ccccc4)C(=O)N[C@@H](CCSC)C(=O)N[C@@H](CCCNC(=N)N)C(=O)N[C@@H](CCCCN)C(=O)N2)NC(=O)[C@H](CSSC[C@@H](C(=O)N[C@@H](CCCNC(=NC)NC)C(=O)N[C@@H](Cc2ccc(O)cc2)C(=O)N[C@H](C(=O)N[C@@H](Cc2ccccc2)C(N)=O)C(C)C)NC(=O)[C@H](Cc2c[nH]c4ccccc24)NC(=O)[C@H](CCCCN)NC(=O)[C@H](Cc2c[nH]cn2)NC(=O)[C@H]([C@@H](C)O)NC(=O)[C@H](CCCNC(=N)N)NC(=O)[C@H](CO)NC3=O)NC(=O)[C@H](CCCCN)NC(=O)[C@H](CC(=O)O)NC(=O)[C@H](CC(N)=O)NC(=O)[C@H](CC(=O)O)NC(=O)[C@@H]2CCCN2C1=O` [compound 365] (H-DCLGFMRKCIPDNDKCCRPNLVCSRTHKWC[Arg(Me2s)]YVF-NH2; disulfide 2-17, 9-23, 16-30), the IC50 in assay [1] (Table 25, IonWorks Quattro, use, […], read-out: IWQ Use Nav1.7) was determined as 4150 nM; in assay [2] (Table 25, use, […]), 14200 nM; in assay [3] (Table 25, use, […]) it was 4550 nM.
Take `C#CCCC(=O)NCCCC[C@@H]1NC(=O)[C@H](CC(=O)O)NC(=O)[C@@H]2CCCN2C(=O)[C@H]([C@@H](C)CC)NC(=O)[C@@H]2CSSC[C@@H]3NC(=O)[C@H](C(C)C)NC(=O)[C@H](CC(C)C)NC(=O)[C@H](CC(N)=O)NC(=O)[C@@H]4CCCN4C(=O)[C@H](CCCNC(=N)N)NC(=O)[C@H](CSSC[C@H](NC(=O)[C@@H](N)CC(=O)O)C(=O)N[C@@H](CC(C)C)C(=O)NCC(=O)N[C@@H](CC)C(=O)N[C@@H](CC(C)C)C(=O)N[C@@H](CCCNC(=N)N)C(=O)N[C@@H](CCCCN)C(=O)N2)NC(=O)[C@H](CSSC[C@@H](C(=O)N[C@@H](CCCCN)C(=O)N[C@@H](Cc2ccc(O)cc2)C(=O)N[C@H](C(=O)N[C@@H](Cc2ccccc2)C(N)=O)C(C)C)NC(=O)[C@H](Cc2c[nH]c4ccccc24)NC(=O)[C@H](CCCNC(=N)N)NC(=O)[C@H](Cc2c[nH]cn2)NC(=O)[C@H]([C@@H](C)O)NC(=O)[C@H](CCCNC(=N)N)NC(=O)[C@H](CO)NC3=O)NC(=O)[C@H](CCCCN)NC(=O)[C@H](CC(=O)O)NC1=O` [compound 801] (H-DCLG[Abu]LRKCIPDK(Pent4ynoyl)DKCCRPNLVCSRTHRWCKYVF-NH2; disulfide 2-17, 9-23, 16-30): the IC50 in assay [1] (IonWorks Quattro, use-dependent block, hNav1.7, read-out: IWQ Use Nav1.7) is 550 nM; in assay [2] (use-dependent block, hNav1.5), 39700 nM; in assay [3] (use-dependent block, hNav1.3), 810 nM.
Turning to `CC[C@H](C)[C@@H]1NC(=O)[C@@H]2CSSC[C@@H]3NC(=O)[C@H](C(C)C)NC(=O)[C@H](CC(C)C)NC(=O)[C@H](Cc4ccc(O)cc4)NC(=O)[C@@H]4CCCN4C(=O)[C@H](CCCNC(=N)N)NC(=O)[C@H](CSSC[C@H](NC(=O)[C@@H](N)CC(=O)O)C(=O)N[C@@H](CC(C)C)C(=O)NCC(=O)N[C@@H](Cc4ccccc4)C(=O)N[C@@H](CCSC)C(=O)N[C@@H](CCCNC(=N)N)C(=O)N[C@@H](CCCCN)C(=O)N2)NC(=O)[C@H](CSSC[C@@H](C(=O)N[C@@H](CCCCN)C(=O)N[C@@H](Cc2ccc(O)cc2)C(=O)N[C@H](C(=O)N[C@@H](Cc2ccccc2)C(N)=O)C(C)C)NC(=O)[C@H](Cc2c[nH]c4ccccc24)NC(=O)[C@H](CCCCN)NC(=O)[C@H](Cc2c[nH]cn2)NC(=O)[C@H]([C@@H](C)O)NC(=O)[C@H](CCCNC(=N)N)NC(=O)[C@H](CO)NC3=O)NC(=O)[C@H](CCCCN)NC(=O)[C@H](CC(=O)O)NC(=O)[C@H](CC(N)=O)NC(=O)[C@H](CC(=O)O)NC(=O)[C@@H]2CCCN2C1=O` [compound 200] (H-DCLGFMRKCIPDNDKCCRPYLVCSRTHKWCKYVF-NH2; disulfide 2-17, 9-23, 16-30), the results for the IC50 in assay [1] (setting [5]), in assay [2] (Use) and in assay [3] (Use) were 116 nM, 9050 nM and 55 nM, respectively.
In the case of `CC[C@H](C)[C@@H]1NC(=O)[C@@H]2CSSC[C@@H]3NC(=O)[C@H](C(C)C)NC(=O)[C@H](CC(C)C)NC(=O)[C@H](CC(N)=O)NC(=O)[C@@H]4CCCN4C(=O)[C@H](CCCNC(=N)N)NC(=O)[C@H](CSSC[C@H](NC(=O)[C@@H](N)CC(=O)O)C(=O)N[C@@H](CC(C)C)C(=O)NCC(=O)N[C@@H](Cc4ccccc4)C(=O)N[C@@H](CCSC)C(=O)N[C@@H](CCCNC(=N)N)C(=O)N[C@@H](CCCCN)C(=O)N2)NC(=O)[C@H](CSSC[C@@H](C(=O)N[C@@H](CCCCN)C(=O)N[C@@H](Cc2ccc(O)cc2)C(=O)N[C@H](C(=O)N[C@@H](Cc2ccccc2)C(N)=O)C(C)C)NC(=O)[C@H](Cc2c[nH]c4ccccc24)NC(=O)[C@H](CCCCN)NC(=O)[C@H](Cc2c[nH]cn2)NC(=O)[C@H]([C@@H](C)O)NC(=O)[C@H](CCCNC(=N)N)NC(=O)[C@H](CO)NC3=O)NC(=O)[C@H](CCCCN)NC(=O)[C@H](CC(=O)O)NC(=O)[C@H](CC(N)=O)NC(=O)[C@H](CO)NC(=O)[C@@H]2CCCN2C1=O` [compound 91] (H-DCLGFMRKCIPSNDKCCRPNLVCSRTHKWCKYVF-NH2; disulfide 2-17, 9-23, 16-30), the results for the IC50 in assay [1] (setting [5]), in assay [2] (Use) and in assay [3] (Use) were 80 nM, 9580 nM and 190 nM, respectively.
With `CC[C@H](C)[C@@H]1NC(=O)[C@@H]2CSSC[C@@H]3NC(=O)[C@H](C(C)C)NC(=O)[C@H](CC(C)C)NC(=O)[C@H](CC(N)=O)NC(=O)[C@@H]4CCCN4C(=O)[C@H](CCCNC(=N)N)NC(=O)[C@H](CSSC[C@H](NC(=O)[C@@H](N)CC(=O)O)C(=O)N[C@@H](CC(C)C)C(=O)NCC(=O)N[C@@H](C(C)C)C(=O)N[C@@H](CC(C)C)C(=O)N[C@@H](CCCNC(=N)N)C(=O)N[C@@H](CCCCN)C(=O)N2)NC(=O)[C@H](CSSC[C@@H](C(=O)N[C@@H](CCCCN)C(=O)N[C@@H](Cc2ccc(O)cc2)C(=O)N[C@H](C(=O)N[C@@H](Cc2ccccc2)C(N)=O)C(C)C)NC(=O)[C@H](Cc2c[nH]c4ccccc24)NC(=O)[C@H](CCC(=O)O)NC(=O)[C@H](Cc2c[nH]cn2)NC(=O)[C@H]([C@@H](C)O)NC(=O)[C@H](CCCNC(=N)N)NC(=O)[C@H](CO)NC3=O)NC(=O)[C@H](CCCCN)NC(=O)[C@H](CC(=O)O)NC(=O)[C@H](CC(N)=O)NC(=O)[C@H](CC(=O)O)NC(=O)[C@@H]2CCCN2C1=O` [compound 709] (H-DCLGVLRKCIPDNDKCCRPNLVCSRTHEWCKYVF-NH2; disulfide 2-17, 9-23, 16-30), the IC50 came out at 740 nM in assay [1] (IonWorks Quattro, use-dependent protocol, hNav1.7, read-out: IWQ Use Nav1.7); 43000 nM in assay [2] (use-dependent protocol, hNav1.5); 4800 nM in assay [3] (use-dependent protocol, hNav1.3).

For the origin of these results see patent US9340590B2 (priority 2011, dated 2016).
